SMILES strings stand for the structures. pIC50: −log10 of the molar value.

Results on 26 compounds are retold here after patent US20070155730A1, “Benzodiazepine And Benzopiperazine Analog Inhibitors Of Histone Deacetylase” (METHYLGENE, INC., priority 2005, published 2007).

For the assay, the target named is histone deacetylase (HDAC). As to the kind of experiment: Inhibition of Histone Deacetylase Enzymatic Activity. To be noted: substrate Boc-Lys(Ac)-AMC, Fluor-de-Lys developer, 37° C., 20 min; against one or more of HDAC-1 to HDAC-11, SirT1 to SirT7 (isoform not given); read-out: HDAC Inhibitory Activity (IC50). Format: biochemical. How it is done:
The following protocol is used to assay the compounds of the invention. In the assay, the buffer used is 25 mM HEPES, pH 8.0, 137 mM NaCl, 2.7 mM KCl, 1 mM MgCl2 and the substrate is Boc-Lys(Ac)-AMC in a 50 mM stock solution in DMSO. The enzyme stock solution is 4.08 μg/mL in buffer.
The compounds are pre-incubated (2 μl in DMSO diluted to 13 μl in buffer for transfer to assay plate) with enzyme (20 μl of 4.08 μg/mL) for 10 min at room temperature (35 μl pre-incubation volume). The mixture is pre-incubated for 5 min at room temperature. The reaction is started by bringing the temperature to 37° C. and adding 16 μl substrate. Total reaction volume is 50 μl. […] A plate is incubated in the dark for 10 min at room temperature before reading (λEX=360 nm, λEm=470 nm, Cutoff filter at 435 nm).
In the table, “A” indicates inhibitory activity at a concentration of <0.05 μM; “B” indicates inhibitory activity at a concentration >0.05 μM but <0.5 μM, “C” indicates inhibitory activity at >0.5 μM but <2 μM and “D” indicates inhibitory activity at a concentration of >2 μM but <10 μM.
For the compound `CC(C)[C@H]1C(=O)Nc2cc(C(=O)NO)ccc2N1Cc1ccc2ccccc2c1` [Compound 16h, (S)-1,2,3,4-tetrahydro-N-hydroxy-2-isopropyl-1-((naphthalen-3-yl)methyl)-3-oxoquinoxaline-6-carboxamide], the pIC50 was 5.70 to 6.30.
Consider `O=C(CCCCCCC(=O)Nc1ccc2c(c1)NC(=O)[C@@H](Cc1c[nH]c3ccccc13)N2)NO` [Compound 24f, N1—((R)-2-((1H-Indol-3-yl)methyl)-1,2,3,4-tetrahydro-3-oxoquinoxalin-6-yl)-N8-hydroxyoctanediamide], for which the pIC50 is more than 7.30.
With `O=C(NO)c1ccc(CN2C(=O)CNC(=O)[C@H]2Cc2cccs2)cc1` [Compound 136c, (R)-4-((3,6-Dioxo-2-(thien-2-ylmethyl)piperazin-1-yl)methyl)-N-hydroxybenzamide] the figure was 6.30 to 7.30.
`O=C(CCCCCN1C(=O)[C@H](Cc2c[nH]c3ccccc23)NC(=O)c2ccccc21)NO` [Compound 68b7, 6-((S)-3-((1H-Indol-3-yl)methyl)-2,3,4,5-tetrahydro-2,5-dioxobenzo[e][1,4]diazepin-1-yl)-N hydroxyhexanamide]: the pIC50 is 5.00 to 5.70.
The result for `O=C(CCCCCN1C(=O)[C@H](c2ccccc2)NC(=O)c2ccccc21)NO` [Compound 68b11, 6-((S)-2,3,4,5-tetrahydro-2,5-dioxo-3-phenylbenzo[e][1,4]diazepin-1-yl)-N-hydro-xyhexanamide] reads 6.30 to 7.30; that for `O=C(NO)c1ccc(CN2c3ccccc3NC(=O)[C@H]2Cc2c[nH]c3ccccc23)cc1` [Compound 54b2, (R)-4-((2-((1H-indol-3-yl)methyl)-3-oxo-3,4-dihydroquinoxalin-1(2H)-yl)methyl)-N-hydroxybenzamide], more than 7.30; that for `COc1ccc(CN2c3ccccc3NC(=O)[C@H]2CCC(=O)CCC(=O)NO)cc1` [Compound 43, 6-((R)-1-(4-methoxybenzyl)-1,2,3,4-tetrahydro-3-oxoquinoxalin-2-yl)-N-hydroxy-4-oxy-hexanamide], 5.00 to 5.70.
With `CC(C)[C@H]1C(=O)Nc2cc(C(=O)NO)ccc2N1Cc1ccc(C(=N)NO)cc1` [Compound 16f, (S)—N-hydroxy-1-(4-(N-hydroxycarbamimidoyl)benzyl)-2-isopropyl-3-oxo-1,2,3,4-tetrahydroquinoxaline-6-carboxamide] the figure was 6.30 to 7.30; with `O=C1CN(Cc2ccc(C(=O)NO)cc2)c2ccccc2N1` [Compound 54b1, N-hydroxy-4-((3-oxo-3,4-dihydroquinoxalin-1(2H)-yl)methyl)-benzamide], more than 7.30; with `CSCC[C@@H]1Nc2ccc(C(=O)NO)cc2NC1=O` [Compound 4b, (S)-1,2,3,4-tetrahydro-N-hydroxy-2-(2-(methylthio)ethyl)-3-oxoquinoxaline-6-carboxamide], 5.00 to 5.70.
The result for `O=C(CCCCCC1NC(=O)c2ccccc2N(CCc2ccccc2)C1=O)NO` (centres unmarked) [Compound 83, 6-(2,3,4,5-tetrahydro-2,5-dioxo-1-phenethyl-1H-benzo[e][1 ,4]diazepin-3-yl)-N-hydroxyhexanamide] reads 5.70 to 6.30; that for `CC(C)[C@H]1C(=O)Nc2cc(C(=O)NO)ccc2N1S(=O)(=O)c1cccc2ccccc12` [Compound 18f], 5.70 to 6.30.
Turning to `O=C(NO)c1ccc(CN2c3ccccc3NC(=O)[C@H]2Cc2ccc3ccccc3c2)cc1` [Compound 54b10, (R)—N-hydroxy-4-((2-(naphthalen-2-ylmethyl)-3-oxo-3,4-dihydroquinoxalin-1(2H)-yl)methyl)benzamide], the negative logarithm of the IC50 (pIC50) was more than 7.30.
With `CC(C)C[C@H]1NC(=O)c2ccccc2N(CCCCCC(=O)Nc2cscc2N)C1=O` [Compound 72, N-(4-Aminothiophen-3-yl)-6-((R)-2,3,4,5-tetrahydro-3-isobutyl-2,5-dioxobenzo[e][1,4]diazepin-1-yl)hexanamide] the figure was 5.00 to 5.70; with `O=C(NO)c1cnc(N[C@H]2C[C@@H](C(=O)Nc3cccc4cccnc34)N(C(=O)OCc3ccccc3)C2)nc1` [Compound 122, (2S,4S)-Benzyl 4-(5-(hydroxycarbamoyl)pyrimidin-2-ylamino)-2-(quinolin-8-ylcarbamoyl)pyrrolidine-1-carboxylate], more than 7.30.
Regarding `CC(C)[C@@H]1NC(=O)c2ccc(C(=O)NO)cc2NC1=O` [Compound 97b, (S)-N-Hydroxy-3-isopropyl-2,5-dioxo-2,3,4,5-tetrahydro-1H-benzo[e][1,4]diazepine-8-carboxamide], the pIC50 was 5.00 to 5.70.
With `O=C(NO)c1ccc(CN2c3ccccc3NC(=O)[C@@H]2Cc2csc3ccccc23)cc1` [Compound 54b14, (S)-4-((2-(benzo[b]thiophen-3-ylmethyl)-3-oxo-3,4-dihydroquinoxalin-1(2H)-yl)methyl)-N-hydroxybenzamide] the figure was 6.30 to 7.30; with `O=C(CCO[C@@H]1C[C@H](C(=O)Nc2cccc3cccnc23)N(C(=O)OCc2ccccc2)C1)NO` [Compound 112c, (2R,4R)-benzyl 4-(3-(hydroxyamino)-3-oxopropoxy)-2-(quinolin-8-ylcarbamoyl) pyrrolidine-1-carboxylate], 5.70 to 6.30; with `CC(C)[C@H]1Nc2ccc(C(=O)NO)cc2NC1=O` [Compound 4e, (R)-1,2,3,4-tetrahydro-N-hydroxy-2-isopropyl-3-oxoquinoxaline-6-carboxamide], 5.00 to 5.70.
The result for `O=C(CO[C@@H]1CC(C(=O)Nc2cccc3cccnc23)N(C(=O)OCc2ccccc2)C1)NO` (stereo partly drawn) [Compound 112b, (2S,4R)-benzyl 4-(2-(hydroxyamino)-2-oxoethoxy)-2-(quinolin-8-ylcarbainoyl) pyrrolidine-1-carboxylate] reads 5.70 to 6.30.
The result for `CC(C)(C)C[C@H]1NC(=O)c2ccccc2N(CCCCCC(=O)NO)C1=O` [Compound 68b18, 6-((R)-2,3,4,5-Tetrahydro-3-neopentyl-2,5-dioxobenzo[e][1,4]diazepin-1-yl)-N-hydroxyhexanamide] reads 6.30 to 7.30.
In the case of `O=C(NO)c1ccc2c(c1)NC(=O)[C@@H](CC1CCCCC1)NC2=O` [Compound 97g, (R)-3-(Cyclohexylmethyl)-N-hydroxy-2,5-dioxo-2,3,4,5-tetrahydro-1H-benzo[e][1,4]diazepine-8-carboxamide], the pIC50 is 5.00 to 5.70.
The result for `O=C(CCCCCC1NC(=O)c2cc(NC(=O)OCc3ccccc3)ccc2NC1=O)NO` (centres unmarked) [Compound 92a, 6-(7-Benzyloxycarbonylamino-2,3,4,5-tetrahydro-2,5-dioxo-1H-benzo[e][1,4]diazepin-3-yl)-N-hydroxyhexanamide] reads 6.30 to 7.30; that for `CC(C)[C@@H]1Nc2ccc(NC(=O)CCCCCCC(=O)c3ncco3)cc2NC1=O` [Compound 29a, N—((S)-1,2,3,4-Tetrahydro-2-isopropyl-3-oxoquinoxalin-6-yl)-8-(oxazol-2-yl)-8-oxooctanamide], 6.30 to 7.30.
With `O=C(/C=C/c1ccc2c(c1)NC(=O)[C@H](Cc1c[nH]c3ccccc13)N2)NO` [Compound 66c, (E)-3-((S)-2-((1H-indol-3-yl)methyl)-1,2,3,4-tetrahydro-3-oxoquinoxalin-6-yl)-N-hydroxyacrylamide] the figure was 5.70 to 6.30.
The result for `CC(C)[C@H]1C(=O)Nc2cc(C(=O)NO)ccc2N1S(=O)(=O)c1ccccc1` [Compound 18a, (S)—N-hydroxy-2-isopropyl-3-oxo-1-(phenylsulfonyl)-1,2,3,4-tetrahydroquinoxaline-6-carboxamide] reads 5.00 to 5.70.
